Source: publication PMC4737155 (Nucleic Acids Research, 2015)

Assays:
Assay in all cases: biochemical
SaTrm10 [1] = target: T1, SaTrm10 (Sulfolobus acidocaldarius, UniProt Q4J894)
T1 sequence (Q4J894 1-292): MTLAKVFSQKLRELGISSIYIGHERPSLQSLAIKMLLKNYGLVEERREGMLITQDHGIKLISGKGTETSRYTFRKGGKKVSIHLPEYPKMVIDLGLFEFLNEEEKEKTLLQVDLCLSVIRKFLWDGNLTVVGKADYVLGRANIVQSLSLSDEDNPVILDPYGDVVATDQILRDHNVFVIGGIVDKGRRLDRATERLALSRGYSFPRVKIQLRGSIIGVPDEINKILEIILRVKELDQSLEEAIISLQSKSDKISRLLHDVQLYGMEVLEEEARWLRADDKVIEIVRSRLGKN

SaTrm10 [2] = target: SaTrm10 (Sulfolobus acidocaldarius, UniProt Q4J894, D220N)
Sequence of SaTrm10 (Sulfolobus acidocaldarius, UniProt Q4J894, D220N) (Q4J894 whole entry D220N): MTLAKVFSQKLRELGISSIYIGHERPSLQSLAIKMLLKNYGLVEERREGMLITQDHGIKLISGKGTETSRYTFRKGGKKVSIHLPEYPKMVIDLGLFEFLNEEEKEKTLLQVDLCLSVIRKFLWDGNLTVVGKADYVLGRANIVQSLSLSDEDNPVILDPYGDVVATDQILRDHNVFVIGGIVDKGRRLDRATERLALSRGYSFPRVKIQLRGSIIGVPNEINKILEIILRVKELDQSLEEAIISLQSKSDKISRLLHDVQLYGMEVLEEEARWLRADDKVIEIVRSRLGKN

SaTrm10 [3] = target: SaTrm10 (Sulfolobus acidocaldarius, UniProt Q4J894, D184N)
Sequence of SaTrm10 (Sulfolobus acidocaldarius, UniProt Q4J894, D184N) (Q4J894 whole entry D184N): as the sequence (Q4J894 whole entry D220N) above, with D184N, N220D counted along it

Kd (SaTrm10 [1]): 33 ± 4 µM
Kd (SaTrm10 [2]): 47 ± 8 µM
Kd (SaTrm10 [3]): 28 ± 5 µM
SMILES: C[S+](CC[C@H](N)C(=O)O)C[C@H]1O[C@@H](n2cnc3c(N)ncnc32)[C@H](O)[C@@H]1O (stereo partly drawn) [S-adenosyl methionine]
